The subject of data set [1] is DsRed-IRES-tau EGFP HEK293 cells. Description: Flow cytometry of DsRed-IRES-tau EGFP HEK293 cells (tau clearance). The format is cell-based, human. As to conditions: 5 μM compound with 100 nM TG for 20 hours. Background: A flow cytometer gives signals particle by particle.
In data set [2] the target is T1, DNAJC3 (Homo sapiens, UniProt Q13217).
T1 sequence (Q13217 32-504): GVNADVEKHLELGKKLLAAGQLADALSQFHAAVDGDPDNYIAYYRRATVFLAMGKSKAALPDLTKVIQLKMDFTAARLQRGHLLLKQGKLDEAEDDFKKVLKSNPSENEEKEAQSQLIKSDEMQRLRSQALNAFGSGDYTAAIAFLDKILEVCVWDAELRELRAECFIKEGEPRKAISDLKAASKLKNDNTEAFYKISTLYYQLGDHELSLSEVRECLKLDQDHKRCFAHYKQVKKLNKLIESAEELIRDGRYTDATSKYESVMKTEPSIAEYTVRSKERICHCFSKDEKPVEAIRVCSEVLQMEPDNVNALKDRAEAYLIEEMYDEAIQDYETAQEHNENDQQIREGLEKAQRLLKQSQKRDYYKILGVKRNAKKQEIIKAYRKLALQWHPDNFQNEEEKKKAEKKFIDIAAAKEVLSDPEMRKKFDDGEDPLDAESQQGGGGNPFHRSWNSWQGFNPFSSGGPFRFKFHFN
Description: Surface plasmon resonance assay. The format is binding. Conditions: various concentrations, PBS pH 7.3, 25° C. As for the experimental part:
(§1) Surface plasmon resonance (SPR) assays were performed using a Biacore T100 instrument (GE Healthcare). The recombinant PDIA3 or DNAJC3 protein was immobilized on the CM5 sensor chip (GE Healthcare) through an amide bond by activating the carboxy group on the CM5 sensor chip with a 1:1 mixture of N-ethyl-N′-(3-dimethylaminopropyl)-carbodiimide and N-hydroxysuccinimide. Protein immobilization reactions were performed in PBS containing 0.005% Tween 20 at pH 4.7 and pH 5.0 for PDIA3 and DNAJC3, respectively. Binding between compounds and proteins was monitored by injecting compounds at various concentrations into PBS (pH 7.3) containing 3% DMSO and 0.005% Tween 20 at 25° C. Data were analyzed to calculate kinetic parameters by fitting sensor grams with a 1:1 binding model using Biacore T100 evaluation software (GE Healthcare).
(§2) Additionally, it was confirmed whether SB1617 directly binds to PDIA3 and DNAJC3 through surface plasmon resonance (SPR) of Examples 1-11.
For orientation: Surface plasmon resonance follows binding to a sensor surface in real time, without labels.

The target in data set [3] is T2, PDIA3 (Homo sapiens, UniProt P30101).
T2 sequence (P30101 25-505): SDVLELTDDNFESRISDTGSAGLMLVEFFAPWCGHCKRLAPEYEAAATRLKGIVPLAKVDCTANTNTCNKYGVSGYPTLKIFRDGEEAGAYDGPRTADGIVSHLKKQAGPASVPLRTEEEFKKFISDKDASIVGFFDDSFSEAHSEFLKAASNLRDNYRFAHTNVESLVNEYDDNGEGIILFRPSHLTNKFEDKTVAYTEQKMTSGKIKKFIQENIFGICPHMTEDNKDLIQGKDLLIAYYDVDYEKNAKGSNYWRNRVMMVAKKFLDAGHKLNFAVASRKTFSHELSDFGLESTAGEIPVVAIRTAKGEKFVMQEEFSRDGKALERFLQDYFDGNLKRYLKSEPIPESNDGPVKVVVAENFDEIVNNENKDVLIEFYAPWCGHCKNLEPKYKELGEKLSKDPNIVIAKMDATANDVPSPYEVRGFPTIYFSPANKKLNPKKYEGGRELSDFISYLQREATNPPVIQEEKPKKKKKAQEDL
Description: Surface plasmon resonance assay. Conditions: various concentrations, PBS pH 7.3, 25° C. The format is binding. As for the experimental part:
as §1, §2

The subject of data set [4] is LC3-1 to LC3-II conversion (autophagy). Description: Immunoblot of LC3-1 to LC3-II conversion and p62 in HEK293 BiFC-tau cells. It is filed as cell-based, human. As to conditions: 5 μM SB1617, presence or absence of 500 nM TG, 6 hours. For orientation: A western blot detects proteins with antibodies after separation by electrophoresis.
Data set [5] in a line: Blood-brain barrier penetration test in male ICR mice. Conditions: for concentration at 0.5 h / concentration at 3 h: male, 5 mg/kg. The format is in vivo, mouse. As for the experimental part: After intraperitoneal administration (5 mg/kg, 3.3 mL/kg) of the compound (SB1617, 5% DMSO/[…]) according to the present invention to CD-1 (ICR) male mice (7 weeks old, KOATECH, Korea), blood samples were collected using heparinized tubes at designated time points (0.5 and 3 hours) in the orbital venous plexus, mice were sacrificed, and brain tissues were harvested. Plasma and brain homogenate samples were analyzed with an LC-MS/MS analyzer (Agilent 1260, Agilent 6460). The proportion of the compound according to the invention (SB1617) in brain and plasma was calculated.
6-1. In order to evaluate the suitability of the compound (SB1617) according to this invention in vivo, pharmacokinetic properties and blood-brain barrier penetration properties were identified using male ICR mice according to the methods described in Examples 1-15 and 1-16.
In addition, as shown in FIG. 28 and Table 3, it was confirmed that at least 50% of SB1617 was detected in the brain compared to plasma.

The values that follow come from patent US20230322805A1, “NOVEL PYRIMIDODIAZEPINE DERIVATIVES OR USES THEREOF” (SPARK BIOPHARMA, INC., priority 2020, published 2023).

Read-outs that look alike come from different tables or passages of the source.

As to `CN(Cc1ccc(Cl)cc1)c1ncnc2c1[C@@H]1OC[C@H](CN2)N1S(=O)(=O)c1ccc([N+](=O)[O-])cc1` [Compound 117], the EGFP-to-DsRed signal ratio result in data set [1] was “decreased”. Also, the “direct binding (SPR)” value in data set [2] and in data set [3] was “binds directly” throughout. The “conversion from LC3-1 to LC3-II” value in data set [4] was “conversion from light chain 3-1 (LC3-1) to LC3-II was confirmed”. Moreover, in data set [5] (CD-1 (ICR), mouse, brain, ip, 0.5 h after I.P. 5 mg/kg, read-out: Brain/Plasma ratio), the Kp at 0.5 h turned out to be 0.5 ± 0.14. Further, in data set [5] (CD-1 (ICR), mouse, brain, ip, 3 h after I.P. 5 mg/kg, read-out: Brain/Plasma ratio), the Kp at 3 h turned out to be 0.66 ± 0.21. Besides, the Kp in data set [5] (CD-1 (ICR), mouse, in vivo, ip, I.P. 5 mg/kg, read-out: SB1617 detected in the brain compared to plasma) was at least 0.5. For the same compound, the blood-brain barrier crossing result in data set [5] (intraperitoneal injection) is reported as “sufficient blood-brain barrier crossing”. For the same compound, the concentration at 0.5 h is 421 ± 58.2 ng/mL in data set [5] (CD-1 (ICR), mouse, in vivo, ip, 0.5 h after I.P. 5 mg/kg, read-out: Concentration, Brain tissue) and 885 ± 187 ng/mL in data set [5] (CD-1 (ICR), mouse, in vivo, ip, 0.5 h after I.P. 5 mg/kg, read-out: Concentration, Plasma). In addition, the concentration at 3 h is 55.9 ± 5 ng/mL in data set [5] (CD-1 (ICR), mouse, in vivo, ip, 3 h after I.P. 5 mg/kg, read-out: Concentration, Brain tissue) and 92.4 ± 29.8 ng/mL in data set [5] (CD-1 (ICR), mouse, in vivo, ip, 3 h after I.P. 5 mg/kg, read-out: Concentration, Plasma).
